Assay results: PubChem BioAssay (NCI)
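All cell lines were grown in 96-well plates and treated with compound for 48 hours. GI50: concentration for 50% inhibition of growth. TGI denotes the concentration required for complete inhibition of growth.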

Columns and labels:
Assay in all cases: NCI anticancer screen, dose series, 48 h
ACHN renal = test system: ACHN renal
HCC-2998 colon = test system: HCC-2998 colon
NCI-H522 lung = test system: NCI-H522 lung
SF-295 CNS = test system: SF-295 CNS
OVCAR-5 ovarian = test system: OVCAR-5 ovarian
OVCAR-8 ovarian = test system: OVCAR-8 ovarian
UACC-257 melanoma = test system: UACC-257 melanoma
OVCAR-4 ovarian = test system: OVCAR-4 ovarian
NCI/ADR-RES ovarian = test system: NCI/ADR-RES ovarian
MDA-MB-231 breast = test system: MDA-MB-231 breast

SMILES	TGI (ACHN renal) [µM]	TGI (HCC-2998 colon) [µM]	TGI (NCI-H522 lung) [µM]	TGI (SF-295 CNS) [µM]	TGI (OVCAR-5 ovarian) [µM]	TGI (OVCAR-8 ovarian) [µM]	TGI (UACC-257 melanoma) [µM]	TGI (OVCAR-4 ovarian) [µM]	GI50 (ACHN renal) [µM]	GI50 (HCC-2998 colon) [µM]	GI50 (NCI-H522 lung) [µM]	GI50 (NCI/ADR-RES ovarian) [µM]	TGI (NCI/ADR-RES ovarian) [µM]	GI50 (SF-295 CNS) [µM]	GI50 (OVCAR-5 ovarian) [µM]	GI50 (MDA-MB-231 breast) [µM]	TGI (MDA-MB-231 breast) [µM]	GI50 (OVCAR-8 ovarian) [µM]	GI50 (UACC-257 melanoma) [µM]	GI50 (OVCAR-4 ovarian) [µM]
NCC(NC(=O)OCc1ccccc1)C(=O)O (stereo unspecified)	> 50	> 50	> 50	> 50	> 50	> 50	> 50	> 50	–	–	–	–	–	–	–	–	–	–	–	–
CC1=C(c2cc(C(=O)Nc3ccc(Cl)c(Cl)c3)nc(N)n2)Sc2ccccc2N1	> 100	> 100	> 100	> 100	> 100	> 100	> 100	> 100	–	–	–	–	–	–	–	–	–	–	–	–
CNC(C)C(=O)N[C@H](C(=O)N1CCC[C@@H]1CN(CCc1ccccc1)C(=O)C(F)(F)F)[C@H](C)OCC#CC#CCO[C@H](C)[C@H](NC(=O)[C@H](C)NC)C(=O)N1CCC[C@H]1CN(CCc1ccccc1)C(=O)C(F)(F)F (stereo partly specified)	3.44	3.04	2.18	2.84	3.68	2.19	2.72	–	1.85	1.45	0.724	8.19	27.3	1.31	1.88	< 0.01	< 0.01	0.67	1.28	–
CC(=O)OC1C(CCl)OC(N=[N+]=[N-])C(OC(C)=O)C1OC(C)=O (stereo unspecified)	> 100	> 100	> 100	> 100	–	> 100	> 100	> 100	–	–	–	–	–	–	–	–	–	–	–	–
N#CCC(=O)N/N=C1\C(=O)N(c2ccc(Cl)cc2)C(=O)C(=O)C1c1nc2ccccc2o1 (stereo unspecified)	> 100	> 100	> 100	> 100	–	> 100	> 100	> 100	–	–	–	–	–	–	–	–	–	–	–	–
Clc1ccc(OC2CCO2)cc1Cl (stereo unspecified)	> 100	> 100	> 100	> 100	> 100	> 100	> 100	> 100	–	–	–	–	–	–	–	–	–	–	–	–
COc1cc(C2CC(c3cc(C)ccc3C)=NN2c2ccc(S(=O)(=O)NC(=O)NCc3ccccc3)cc2)cc(OC)c1OC (stereo unspecified)	13.2	6.47	21.6	–	26.1	32.4	20.1	39.6	3.47	2.63	3.55	4.18	31.7	–	4.19	2.96	13.3	3.77	3.53	3.28
O=C(O)C#CCO	> 100	–	> 100	> 100	> 100	> 100	> 100	> 100	–	–	–	–	–	–	–	–	–	–	–	–
O=c1c2ccccc2c(=O)c2c1cc(Cl)c1[nH]c3c([nH]c12)c(Cl)cc1c(=O)c2ccccc2c(=O)c13	> 100	> 100	> 100	> 100	> 100	> 100	> 100	> 100	–	–	–	–	–	–	–	–	–	–	–	–
COc1cccc(C2NC(=S)NC(C)=C2C(=O)Nc2ccc(F)c(Cl)c2)c1 (stereo unspecified)	> 50	–	> 50	> 50	38.9	> 50	30.7	–	23.8	–	20.8	18.2	> 50	22.4	12.1	29	> 50	34.6	10.4	–
Cc1cc(C(=O)N2CCN(Cc3ccccc3)CC2)c(C)o1	> 100	> 100	> 100	> 100	> 100	> 100	> 100	> 100	–	–	–	–	–	–	–	–	–	–	–	–
C[C@H]1CC(=O)C2=CCCC3(SCCCS3)[C@@H]2[C@H]1CO	> 100	> 100	> 100	> 100	> 100	> 100	> 100	> 100	–	–	–	–	–	–	–	–	–	–	–	–
COC(=O)C1CCC(Nc2cccc(C(F)(F)F)c2)=N1 (stereo unspecified)	> 100	> 100	> 100	> 100	> 100	> 100	> 100	> 100	–	–	–	–	–	–	–	–	–	–	–	–
CCCCN(CCCC)CCCN=c1nc2c(c(N)n1-c1ccccc1)c(=S)n(-c1ccccc1)c(=S)n2-c1ccccc1	1.8	2.52	2.23	3	3.24	–	1.27	2.46	0.567	0.825	0.664	2.09	4.12	1.4	1.67	0.555	1.53	–	0.609	0.994
Cc1nc(/N=C(\N)NC(=O)Nc2ccccc2Cl)sc1C	7.79	> 100	–	2.7	> 100	> 40.2	> 100	–	0.638	1.25	0.189	0.271	3.28	0.363	1.32	1.06	50.3	0.592	1.44	–
O=C(O)C1CCCCN1C(=O)c1ccccc1 (stereo unspecified)	> 100	> 100	–	> 100	> 100	> 100	> 100	> 100	–	–	–	–	–	–	–	–	–	–	–	–
CCN(CC)CCNC(=O)c1cccc2cc3ccccc3nc12	22.3	25.9	–	37.1	27.7	> 100	–	–	–	–	–	–	–	–	–	–	–	–	–	–
CC[O-].Cc1ccc2cccc([O-])c2n1.Cc1ccc2cccc([O-])c2n1.Cc1ccc2cccc([O-])c2n1.[Ti+4]	> 100	> 67.8	30.4	> 62	> 100	47.1	> 85	> 68.3	50.3	27.5	14	–	–	17.5	> 65	–	–	12.4	18.6	25
COc1cc2cc[n+]3c4cc(OC)c(OC)cc4c(C)cc3c2cc1OC	> 100	> 100	> 100	> 100	> 100	> 100	> 100	> 100	–	–	–	–	–	–	–	–	–	–	–	–
O=C(O)CCC1(Br)CCCCC(Br)C1=O (stereo unspecified)	> 100	> 100	> 100	> 100	> 100	> 100	> 100	> 100	–	–	–	–	–	–	–	–	–	–	–	–

SMILES	TGI (ACHN renal) [µM]	TGI (HCC-2998 colon) [µM]	TGI (NCI-H522 lung) [µM]	TGI (SF-295 CNS) [µM]	TGI (OVCAR-5 ovarian) [µM]	TGI (OVCAR-8 ovarian) [µM]	TGI (UACC-257 melanoma) [µM]	TGI (OVCAR-4 ovarian) [µM]	GI50 (ACHN renal) [µM]	GI50 (HCC-2998 colon) [µM]	GI50 (NCI-H522 lung) [µM]	GI50 (NCI/ADR-RES ovarian) [µM]	TGI (NCI/ADR-RES ovarian) [µM]	GI50 (SF-295 CNS) [µM]	GI50 (OVCAR-5 ovarian) [µM]	GI50 (MDA-MB-231 breast) [µM]	TGI (MDA-MB-231 breast) [µM]	GI50 (OVCAR-8 ovarian) [µM]	GI50 (UACC-257 melanoma) [µM]	GI50 (OVCAR-4 ovarian) [µM]
CCC1CC(=O)N(SCC(N)C(=O)O)C1=O (stereo unspecified)	> 100	–	> 100	> 100	> 100	> 100	> 100	> 100	–	–	–	–	> 100	–	–	–	> 100	–	–	–
CN(c1ccccc1)C1C(=O)N(c2ccccc2)C1/C=C/c1ccccc1 (stereo unspecified)	> 100	> 100	> 100	> 100	> 100	> 100	> 100	–	–	–	–	–	–	–	–	–	–	–	–	–
CCC[CH2][Sn]([CH2]CCC)([O]C(=O)c1nccnc1N)[O]C(=O)c1nccnc1N	2.19	2.45	0.18	2.52	3.1	2.45	2.23	3.49	1.02	1.21	0.052	–	–	1.26	1.72	–	–	1.21	1.03	2.02
O=C(Nc1ccccc1Br)c1cccc([N+](=O)[O-])c1O	> 36.8	16.6	6.4	25.2	> 94	> 71.4	10.1	> 28.9	–	–	–	–	–	–	–	–	–	–	–	–
Cc1cc(C)cc(Sc2c([N+](=O)[O-])ncn2C)c1	> 100	92.7	20	70.8	53.5	29.7	27.7	44.1	–	–	–	–	–	–	–	–	–	–	–	–
CC(=O)OCC1OC(OC2=C(CC=C(Cl)Cl)C(=O)c3ccccc3C2=O)C(OC(C)=O)C(OC(C)=O)C1OC(C)=O (stereo unspecified)	12	20.9	5.2	31.4	28.6	8.29	21.4	–	3.24	6.96	2.17	4.23	51.9	16.3	11.8	2.05	5.62	2.96	8.45	–
COC(=O)[C@@]1(C)CC[C@]2(C)CC[C@]3(C)C4=CC=C5C(=CC(=O)C(O)=C5C)[C@]4(C)CC[C@@]3(C)[C@@H]2C1	0.29	0.474	0.435	1.62	1.5	–	0.767	0.424	0.154	0.21	0.18	–	–	0.407	0.44	0.171	0.395	–	0.279	0.153
O=C1/C(=C\c2coc3ccccc3c2=O)c2ccccc2N1c1c(Cl)cccc1Cl	> 100	> 100	–	> 100	> 100	48.8	> 100	> 100	4.14	5.33	–	3.42	> 100	4.22	20.9	3.88	> 100	5.47	4.59	3.66
CCc1c(Cl)nc(Cl)nc1Cl	0.219	0.774	0.113	5.84	1.3	44.4	2.79	–	–	–	–	–	11.3	–	–	–	2.81	–	–	–
CCOC(=O)C1=C(C)NC(=O)NC1c1coc2cc(C)cc(C)c2c1=O (stereo unspecified)	> 100	–	14.5	> 100	> 100	> 100	> 100	> 100	–	–	–	–	> 100	–	–	–	> 100	–	–	–
CC1(C)C(=S)C(C)(C)C1=S	> 100	> 100	–	–	> 100	–	> 100	> 100	–	–	–	–	> 100	–	–	–	> 100	–	–	–
CC(C)(C)[Si](C)(C)O/N=C\c1ccc(O[Si](C)(C)C(C)(C)C)cc1	> 100	> 100	–	> 100	> 100	> 100	> 100	> 100	–	–	–	–	–	–	–	–	–	–	–	–
O=C1C(Cl)=C(Nc2cccc(O)c2)C(=O)N1c1ccc(Cl)c(Cl)c1	33.3	29.5	> 100	83.5	35.5	52.2	–	> 100	17.3	15	30	22.4	52.3	25.9	18	–	–	23.6	–	34.4
O=C(NNC(=O)c1ccncc1)c1ccncc1	> 100	–	> 100	> 100	> 100	> 100	> 100	> 100	–	–	–	–	> 100	–	–	–	> 100	–	–	–
CC(C)c1cccc(C(C)C)c1NC(=O)C(=O)C(C(=O)c1ccc2ccccc2c1)C1OC(=O)c2ccccc21 (stereo unspecified)	> 100	> 100	> 100	> 100	> 100	–	> 100	> 100	–	–	–	–	–	–	–	–	–	–	–	–
CC1=C([Se]CC(OC(=O)[C@@H](CO)NC(=O)OC(C)(C)C)C(=O)NC(C)(C)C)C(=O)c2ccccc2C1=O (stereo partly specified)	3.02	3.23	3.14	1.06	3.73	–	3.23	2.49	1.57	1.82	1.6	–	–	0.316	2.1	1.62	3.14	–	1.74	1.23
Nc1ccccc1NC(=O)c1ccc(CN2CCC/C(=C\c3cccc(Cl)c3)C2=O)cc1	6.32	5.7	1.06	15.2	> 100	> 100	–	> 100	0.129	1.18	0.225	0.198	6.09	1.05	0.45	0.584	7.93	0.334	–	1.49
C/C(=N/NC(=O)C(N)=O)C(CC(C(=O)Nc1ccccc1C)/C(C)=N\NC(=O)C(N)=O)C(=O)Nc1ccccc1C (stereo unspecified)	> 100	> 100	> 100	> 100	> 100	> 100	> 100	> 100	–	–	–	–	–	–	–	–	–	–	–	–
CCOc1ccc(N=Nc2ccc3oc(=O)c(C(=O)Nc4ccc(OC)cc4)cc3c2)cc1	–	36.8	87.8	> 100	> 100	67.6	> 100	52.9	–	–	–	–	–	–	–	–	–	–	–	–
